{"source": "patent US10975056B2", "about": "(GlaxoSmithKline Intellectual Property Development Limited, priority 2016, dated 2021)", "key": {"DNMT1": {"molecular_target": "DNMT1 (Homo sapiens, UniProt P26358)", "sequence (P26358 whole entry, looked up)": "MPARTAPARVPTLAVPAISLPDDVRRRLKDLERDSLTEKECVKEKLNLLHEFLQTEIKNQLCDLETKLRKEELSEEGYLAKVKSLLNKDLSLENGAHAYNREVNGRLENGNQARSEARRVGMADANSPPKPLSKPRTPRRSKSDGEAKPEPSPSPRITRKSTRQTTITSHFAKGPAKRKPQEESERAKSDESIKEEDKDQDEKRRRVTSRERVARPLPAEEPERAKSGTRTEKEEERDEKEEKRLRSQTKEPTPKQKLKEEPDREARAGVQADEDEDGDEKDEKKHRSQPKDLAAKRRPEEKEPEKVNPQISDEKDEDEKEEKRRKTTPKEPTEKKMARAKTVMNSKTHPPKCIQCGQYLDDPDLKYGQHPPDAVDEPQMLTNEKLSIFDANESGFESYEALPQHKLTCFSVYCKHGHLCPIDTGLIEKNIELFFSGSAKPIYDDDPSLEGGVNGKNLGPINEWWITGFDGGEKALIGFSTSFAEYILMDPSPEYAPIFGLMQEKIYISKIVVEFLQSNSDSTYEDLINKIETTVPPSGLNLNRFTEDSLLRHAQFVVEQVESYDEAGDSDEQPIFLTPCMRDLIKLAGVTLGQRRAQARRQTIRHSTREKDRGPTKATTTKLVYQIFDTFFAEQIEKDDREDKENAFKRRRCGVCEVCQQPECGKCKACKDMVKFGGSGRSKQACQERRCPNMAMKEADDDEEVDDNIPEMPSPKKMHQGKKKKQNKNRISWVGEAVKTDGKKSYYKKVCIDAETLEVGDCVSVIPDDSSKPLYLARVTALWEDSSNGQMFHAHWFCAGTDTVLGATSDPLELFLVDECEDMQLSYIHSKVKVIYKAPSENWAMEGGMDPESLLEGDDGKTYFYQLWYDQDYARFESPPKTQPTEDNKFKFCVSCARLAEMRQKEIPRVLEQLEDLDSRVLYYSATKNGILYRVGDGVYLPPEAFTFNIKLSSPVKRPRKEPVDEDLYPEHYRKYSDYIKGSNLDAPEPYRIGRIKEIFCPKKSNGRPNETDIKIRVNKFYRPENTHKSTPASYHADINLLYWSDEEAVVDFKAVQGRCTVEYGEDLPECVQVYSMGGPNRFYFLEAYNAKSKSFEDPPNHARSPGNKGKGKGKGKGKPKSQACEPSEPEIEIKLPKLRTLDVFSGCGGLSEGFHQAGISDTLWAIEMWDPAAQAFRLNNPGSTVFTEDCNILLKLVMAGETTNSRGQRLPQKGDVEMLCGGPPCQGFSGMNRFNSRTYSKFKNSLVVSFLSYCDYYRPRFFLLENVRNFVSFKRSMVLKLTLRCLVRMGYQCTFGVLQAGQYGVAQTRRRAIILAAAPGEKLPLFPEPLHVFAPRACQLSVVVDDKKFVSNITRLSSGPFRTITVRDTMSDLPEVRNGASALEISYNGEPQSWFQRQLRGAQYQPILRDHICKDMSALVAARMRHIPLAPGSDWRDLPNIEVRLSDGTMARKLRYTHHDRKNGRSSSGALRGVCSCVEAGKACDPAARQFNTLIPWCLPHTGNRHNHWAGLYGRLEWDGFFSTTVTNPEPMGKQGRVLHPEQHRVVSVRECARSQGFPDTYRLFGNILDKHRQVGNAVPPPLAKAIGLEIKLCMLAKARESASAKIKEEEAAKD", "assay": "DNMT1 biochemical activity, breaklight assay and/or SPA assay", "conditions": "for IC50 / DNMT1 BioChemical (pIC50 category): binned activity in either the breaklight or the SPA assay"}, "[1]": {"tested_on": "erythroid progenitor cells (EPCs)", "assay": "Fetal hemoglobin (HbF) ELISA in day 7 erythroid progenitor cells;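 on EPC ELISA (pEC50 category): for fetal hemoglobin induction normalized to vehicle-treated cells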", "format": "cell-based, human", "conditions": "Homo sapiens, Erythroid progenitor cell", "outline": "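Read-out was OD450 from an HRP/TMB sandwich ELISA on lysates, normalized to DMSO-only control wells. Thawed day 7 EPCs from human marrow CD34+ cells had been treated for 5 days at 37° C with Compound A, 22 concentrations […].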"}, "[2]": {"conditions": "read-out: DNMT1 BioChemical (pIC50 category) (converted)"}, "[3]": {"conditions": "HbF ELISA, day 7 EPCs, 5 days, read-out: EPC ELISA (pEC50 category) (converted)"}}, "note": "Structures can show the parent of a compound that is named as a salt. Where two headings read alike, the source gives them in different places.", "data": [{"compound": "N#Cc1c(SC(C(N)=O)c2ccncc2)nc(N2CCOCC2)c(C#N)c1C1CC1", "note": "(stereo not shown) [Example 9, 2-((3,5-dicyano-4-cyclopropyl-6-morpholinopyridin-2-yl)thio)-2-(pyridin-4-yl)acetamide]", "values": [{"measurement": "IC50", "setting": "DNMT1; [2]", "value": "316 to 1000", "unit": "nM"}, {"measurement": "EC50", "setting": "[1]; [3]", "value": "> 31600", "unit": "nM"}]}, {"compound": "CCc1c(C#N)c(SC(C(N)=O)c2ccccc2)nc(N2CCCN(C)CC2)c1C#N", "note": "(stereo not shown) [Example 56, 2-((3,5-Dicyano-4-ethyl-6-(4-methyl-1,4-diazepan-1-yl)pyridin-2-yl)thio)-2-phenylacetamide]", "values": [{"measurement": "DNMT1 BioChemical (pIC50 category)", "setting": "DNMT1", "value": "D (Category D: ≥6.5)"}, {"measurement": "EC50", "setting": "[1]; [3]", "value": "< 316", "unit": "nM"}]}, {"compound": "CN1CCN(CC2CCN(c3nc(SC(C(N)=O)c4ccccc4)c(C#N)c(C4CC4)c3C#N)CC2)CC1", "note": "(stereo not shown) [Example 125, 2-((3,5-Dicyano-4-cyclopropyl-6-(4-((4-methylpiperazin-1-yl)methyl)piperidin-1-yl)pyridin-2-yl)thio-2-phenylacetamide trifluoroacetate]", "values": [{"measurement": "DNMT1 BioChemical (pIC50 category)", "setting": "DNMT1", "value": "D (Category D: ≥6.5)"}, {"measurement": "average pIC50 against DNMT1", "setting": "DNMT1; breaklight assay and/or SPA assay, repeated experimental runs", "value": "> 6.5"}, {"measurement": "EC50", "setting": "[1]; [3]", "value": "< 316", "unit": "nM"}]}, {"compound": "CCc1c(C#N)c(N[C@@H](C(N)=O)c2ccccc2)nc(N2CCCNCC2)c1C#N", "note": "[Example 41, (R)-2-((3,5-dicyano-6-(1,4-diazepan-1-yl)-4-ethylpyridin-2-yl)amino)-2-phenylacetamide]", "values": [{"measurement": "IC50", "setting": "DNMT1; [2]", "value": "316 to 1000", "unit": "nM"}, {"measurement": "EC50", "setting": "[1]; [3]", "value": "1000 to 31600", "unit": "nM"}]}, {"compound": "CCc1c(C#N)c(SC(C(N)=O)c2ccccc2)nc(N2CCOCC2)c1C#N", "note": "(stereo not shown) [Example 57, 2-((3,5-Dicyano-4-ethyl-6-morpholinopyridin-2-yl)thio)-2-phenylacetamide]", "values": [{"measurement": "IC50", "setting": "DNMT1; [2]", "value": "316 to 1000", "unit": "nM"}, {"measurement": "EC50", "setting": "[1]; [3]", "value": "316 to 1000", "unit": "nM"}]}, {"compound": "CCc1c(C#N)c(SC(C(N)=O)c2ccccc2)nc(N2CCNC(=O)CC2)c1C#N", "note": "(stereo not shown) [Example 8, 2-{[3,5-dicyano-4-ethyl-6-(5-oxo-1,4-diazepan-1-yl)pyridin-2-yl]sulfanyl}-2-phenylacetamide]", "values": [{"measurement": "IC50", "setting": "DNMT1; [2]", "value": "316 to 1000", "unit": "nM"}, {"measurement": "EC50", "setting": "[1]; [3]", "value": "1000 to 31600", "unit": "nM"}]}, {"compound": "CCc1c(C#N)c(SC(C(N)=O)c2ccccc2)nc(N2CCC23CCNCC3)c1C#N", "note": "(stereo not shown) [Example 38, 2-((3,5-Dicyano-4-ethyl-6-(1,7-diazaspiro[3.5]nonan-1-yl)pyridin-2-yl)thio)-2-phenylacetamide trifluoroacetate]", "values": [{"measurement": "IC50", "setting": "DNMT1; DNMT1 BioChemical (pIC50 category)", "value": "316 to 1000", "unit": "nM"}, {"measurement": "EC50", "setting": "[1]; read-out: EPC ELISA (pEC50 category) (converted)", "value": "316 to 1000", "unit": "nM"}]}, {"compound": "CC(Sc1nc(N2CCCNCC2)c(C#N)c(C2CC2)c1C#N)C(N)=O", "note": "(stereo not shown) [Example 46, 2-((3,5-dicyano-4-cyclopropyl-6-(1,4-diazepan-1-yl)pyridin-2-yl)thio)propanamide]", "values": [{"measurement": "IC50", "setting": "DNMT1; [2]", "value": "316 to 1000", "unit": "nM"}, {"measurement": "EC50", "setting": "[1]; [3]", "value": "> 31600", "unit": "nM"}]}, {"compound": "CN1CCN(C2CCN(c3nc(SC(C(N)=O)c4ccccc4)c(C#N)c(C4CC4)c3C#N)CC2)CC1", "note": "(stereo not shown) [Example 40, 2-((3,5-Dicyano-4-cyclopropyl-6-(4-(4-methylpiperazin-1-yl)piperidin-1-yl)pyridin-2-yl)thio)-2-phenylacetamide]", "values": [{"measurement": "DNMT1 BioChemical (pIC50 category)", "setting": "DNMT1", "value": "D (Category D: ≥6.5)"}, {"measurement": "EC50", "setting": "[1]; [3]", "value": "< 316", "unit": "nM"}]}, {"compound": "CCc1c(C#N)c(SC(C(N)=O)c2ccccc2)nc(N(C)C)c1C#N", "note": "(stereo not shown) [Compound A, 2-{[3,5-dicyano-6-(dimethylamino)-4-ethylpyridin-2-yl]sulfanyl}-2-phenylacetamide]", "values": [{"measurement": "EC50", "setting": "[1]; day 7 EPCs, 5 days at 37° C, read-out: increase in HbF, average pEC50 (converted)", "value": 316, "unit": "nM"}]}, {"compound": "CCc1c(C#N)c(SC(C(N)=O)c2ccccc2)nc(N2CCNCC2)c1C#N", "note": "(stereo not shown) [Example 55, 2-((3,5-Dicyano-4-ethyl-6-(piperazin-1-yl)pyridin-2-yl)thio)-2-phenylacetamide]", "values": [{"measurement": "IC50", "setting": "DNMT1; [2]", "value": "316 to 1000", "unit": "nM"}, {"measurement": "EC50", "setting": "[1]; [3]", "value": "< 316", "unit": "nM"}]}, {"compound": "CCc1c(C#N)c(SC(C(N)=O)c2ccccc2)nc(N2CCC(O)CC2)c1C#N", "note": "(stereo not shown) [Example 48, 2-((3,5-Dicyano-4-ethyl-6-(4-hydroxypiperidin-1-yl)pyridin-2-yl)thio)-2-phenylacetamide]", "values": [{"measurement": "IC50", "setting": "DNMT1; [2]", "value": "316 to 1000", "unit": "nM"}, {"measurement": "EC50", "setting": "[1]; [3]", "value": "1000 to 31600", "unit": "nM"}]}, {"compound": "CCc1c(C#N)c(SC(C(N)=O)c2ccccc2)nc(N2CCN(CC)CC2)c1C#N", "note": "(stereo not shown) [Example 35, 2-((3,5-dicyano-4-ethyl-6-(4-ethylpiperazin-1-yl)pyridin-2-yl)thio)-2-phenylacetamide]", "values": [{"measurement": "IC50", "setting": "DNMT1; [2]", "value": "316 to 1000", "unit": "nM"}, {"measurement": "EC50", "setting": "[1]; [3]", "value": "1000 to 31600", "unit": "nM"}]}, {"compound": "N#Cc1c(SC(C(N)=O)c2ccccc2)nc(N2CCOC(CO)C2)c(C#N)c1C1CC1", "note": "(stereo not shown) [Example 63, 2-((3,5-Dicyano-4-cyclopropyl-6-(2-(hydroxymethyl)morpholino)pyridin-2-yl)thio)-2-phenylacetamide]", "values": [{"measurement": "IC50", "setting": "DNMT1; [2]", "value": "316 to 1000", "unit": "nM"}, {"measurement": "EC50", "setting": "[1]; [3]", "value": "316 to 1000", "unit": "nM"}]}]}
